Activity calls are given as the source filed them. No cut-off for these calls is given here.
Key:
Format in all cases: nucleic-acid assay
Nucleic Acid [1] = assay: Binding affinity to single stranded DNA18 assessed as formation of G-quadruplex DNA at 20 uM by circular dichroism assay in presence of KCl and exonuclase 1
Nucleic Acid [2] = assay: Binding affinity to single stranded DNA23 assessed as formation of G-quadruplex DNA at 20 uM by UV light illumination photographic analysis in presence of exonuclase 1 and sodium cation
Nucleic Acid [3] = assay: Binding affinity to 21G telomeric DNA assessed as formation of d(G4T4g4) quadruplex DNA at 20 uM after 5 mins in Na+ cation-deficient buffer by label-free fluorescence spectroscopy in presence of exonuclase 1
Nucleic Acid [4] = assay: Binding affinity to 21G telomeric DNA assessed as formation of G-quadruplex DNA at 20 uM after 5 mins in KCl-deficient buffer by label-free fluorescence spectroscopy in presence of exonuclase 1
Nucleic Acid [5] = assay: Binding affinity to single stranded DNA18 assessed as formation of G-quadruplex DNA at 20 uM by UV light illumination photographic analysis in presence of exonuclase 1 and sodium cation
Nucleic Acid [6] = assay: Binding affinity to single stranded DNA20 assessed as formation of G-quadruplex DNA at 20 uM by circular dichroism assay in presence of lithium cation and exonuclase 1
Nucleic Acid [7] = assay: Binding affinity to single stranded DNA20 assessed as formation of G-quadruplex DNA at 20 uM by UV light illumination photographic analysis in presence of exonuclase 1 and lithium cation
Nucleic Acid [8] = assay: Binding affinity to 21G telomeric DNA assessed as formation of VEGF G-quadruplex DNA at 20 uM by UV light illumination photographic analysis in presence of exonuclase 1 and KCl
Nucleic Acid [9] = assay: Binding affinity to single stranded DNA18 assessed as formation of G-quadruplex DNA at 20 uM by circular dichroism assay in presence of lithium cation and exonuclase 1
Nucleic Acid [10] = assay: Binding affinity to single stranded DNA23 assessed as formation of G-quadruplex DNA at 20 uM by UV light illumination photographic analysis in presence of exonuclase 1 and KCl
Nucleic Acid [11] = assay: Binding affinity to 21G telomeric DNA assessed as formation of G-quadruplex DNA at 20 uM after 5 mins by label-free fluorescence spectroscopy in presence of LiCl and exonulease 1
Nucleic Acid [12] = assay: Binding affinity to single stranded DNA18 assessed as formation of G-quadruplex DNA at 20 uM by UV light illumination photographic analysis in presence of exonuclase 1 and KCl
Nucleic Acid [13] = assay: Binding affinity to 21G telomeric DNA assessed as formation of G-quadruplex DNA at 20 uM after 5 mins by label-free fluorescence spectroscopy in presence of exonuclase 1 and KCl
Nucleic Acid [14] = assay: Binding affinity to 21G telomeric DNA assessed as formation of G-quadruplex DNA at 20 uM by circular dichroism assay in presence of exonuclase 1 and bis-(benzimidazole)aryl
Nucleic Acid [15] = assay: Binding affinity to single stranded DNA23 assessed as formation of G-quadruplex DNA at 20 uM by circular dichroism assay in presence of sodium cation and exonuclase 1
Nucleic Acid [16] = assay: Binding affinity to 21G telomeric DNA assessed as formation of c-myc G-quadruplex DNA at 20 uM by UV light illumination photographic analysis in presence of exonuclase 1 and KCl
Nucleic Acid [17] = assay: Binding affinity to single stranded DNA20 assessed as formation of G-quadruplex DNA at 20 uM by UV light illumination photographic analysis in presence of exonuclase 1 and KCl
Nucleic Acid [18] = assay: Binding affinity to single stranded DNA20 assessed as formation of G-quadruplex DNA at 20 uM after 45 mins in KCl-deficient buffer by label-free fluorescence spectroscopy in presence of exonuclase 1 and TMPyP4
Nucleic Acid [19] = assay: Binding affinity to 21G telomeric DNA assessed as formation of G-quadruplex DNA at 20 uM after 45 mins in KCl-deficient buffer by label-free fluorescence spectroscopy in presence of exonuclase 1 and TMPyP4
Nucleic Acid [20] = assay: Binding affinity to single stranded DNA20 assessed as formation of G-quadruplex DNA at 20 uM by UV light illumination photographic analysis in presence of exonuclase 1 and bis-(benzimidazole)aryl
Nucleic Acid [21] = assay: Binding affinity to 21G telomeric DNA assessed as formation of G-quadruplex DNA at 20 uM after 45 mins by label-free fluorescence spectroscopy in presence of exonuclase 1, Li+ cation and TMPyP4
Nucleic Acid [22] = assay: Binding affinity to 21G telomeric DNA assessed as formation of c-kit G-quadruplex DNA at 20 uM by UV light illumination photographic analysis in presence of exonuclase 1 and KCl
Nucleic Acid [23] = assay: Binding affinity to 21G telomeric DNA assessed as formation of G-quadruplex DNA at 20 uM by circular dichroism assay in presence of KCl and exonuclase 1
Nucleic Acid [24] = assay: Binding affinity to single stranded DNA23 assessed as formation of G-quadruplex DNA at 20 uM by circular dichroism assay in presence of KCl and exonuclase 1
Nucleic Acid [25] = assay: Binding affinity to 21G telomeric DNA assessed as formation of G-quadruplex DNA at 20 uM after 5 mins by label-free fluorescence spectroscopy in presence of exonuclase 1 and increasing concentration of KCl
Nucleic Acid [26] = assay: Binding affinity to single stranded DNA20 assessed as formation of G-quadruplex DNA at 20 uM by circular dichroism assay in presence of sodium cation and exonuclase 1
Nucleic Acid [27] = assay: Binding affinity to single stranded DNA20 assessed as formation of G-quadruplex DNA at 20 uM by UV light illumination photographic analysis in presence of exonuclase 1 and sodium cation
Nucleic Acid [28] = assay: Binding affinity to single stranded DNA20 assessed as formation of G-quadruplex DNA at 20 uM by circular dichroism assay in presence of KCl and exonuclase 1
Nucleic Acid [29] = assay: Binding affinity to single stranded DNA20 assessed as formation of G-quadruplex DNA at 20 uM by circular dichroism assay in presence of exonuclase 1 and bis-(benzimidazole)aryl
Nucleic Acid [30] = assay: Binding affinity to 21G telomeric DNA assessed as formation of G-quadruplex DNA at 20 uM by UV light illumination photographic analysis in presence of exonuclase 1 and bis-(benzimidazole)aryl
Nucleic Acid [31] = assay: Binding affinity to single stranded DNA23 assessed as formation of G-quadruplex DNA at 20 uM by circular dichroism assay in presence of lithium cation and exonuclase 1
Nucleic Acid [32] = assay: Binding affinity to 21G telomeric DNA assessed as formation of d(G4T4g4) quadruplex DNA at 20 uM after 5 mins by label-free fluorescence spectroscopy in presence of exonuclase 1 and Na+ cation
Nucleic Acid [33] = assay: Binding affinity to single stranded DNA18 assessed as formation of G-quadruplex DNA at 20 uM by UV light illumination photographic analysis in presence of exonuclase 1 and lithium cation
Nucleic Acid [34] = assay: Binding affinity to 21G telomeric DNA assessed as formation of G-quadruplex DNA at 20 uM after 45 mins by label-free fluorescence spectroscopy in presence of exonuclase 1, KCl and TMPyP4
Nucleic Acid [35] = assay: Binding affinity to single stranded DNA23 assessed as formation of G-quadruplex DNA at 20 uM by UV light illumination photographic analysis in presence of exonuclase 1 and lithium cation
Nucleic Acid [36] = assay: Binding affinity to single stranded DNA18 assessed as formation of G-quadruplex DNA at 20 uM by circular dichroism assay in presence of sodium cation and exonuclase 1

How did the Activity (Nucleic Acid [1]) turn out when C[N+](C)(C)CCC[Si]1(C)C(c2ccccc2)=C(c2ccccc2)C(c2ccccc2)=C1c1ccccc1 was run?
Its Activity is “inactive”.

What about the Activity (Nucleic Acid [2]) of the same molecule?
Its Activity is “inactive”.

What about the Activity (Nucleic Acid [3]) of the same molecule?
Its Activity is “inactive”.

What about the Activity (Nucleic Acid [4]) of the same molecule?
Its Activity is “inactive”.

And the Activity (Nucleic Acid [5])?
The Activity was “inactive”.

What about the Activity (Nucleic Acid [6]) of the same molecule?
The Activity was “inactive”.

What about the Activity (Nucleic Acid [7]) of the same molecule?
The Activity was “inactive”.

What about the Activity (Nucleic Acid [8]) of the same molecule?
The Activity was “Active”.

And the Activity (Nucleic Acid [9])?
Its Activity is “inactive”.

And the Activity (Nucleic Acid [10])?
Its Activity is “inactive”.

And the Activity (Nucleic Acid [11])?
The Activity was “inactive”.

What about the Activity (Nucleic Acid [12]) of the same molecule?
The Activity was “inactive”.

What about the Activity (Nucleic Acid [13]) of the same molecule?
Its Activity is “Active”.

What about the Activity (Nucleic Acid [14]) of the same molecule?
The Activity was “Active”.

What about the Activity (Nucleic Acid [15]) of the same molecule?
Its Activity is “inactive”.

And the Activity (Nucleic Acid [16])?
Its Activity is “Active”.

And the Activity (Nucleic Acid [17])?
The Activity was “inactive”.

And the Activity (Nucleic Acid [18])?
Its Activity is “inactive”.

And the Activity (Nucleic Acid [19])?
The Activity was “inactive”.

What about the Activity (Nucleic Acid [20]) of the same molecule?
Its Activity is “inactive”.

And the Activity (Nucleic Acid [21])?
Its Activity is “inactive”.

And the Activity (Nucleic Acid [22])?
Its Activity is “Active”.

And the Activity (Nucleic Acid [23])?
Its Activity is “Active”.

And the Activity (Nucleic Acid [24])?
The Activity was “inactive”.

And the Activity (Nucleic Acid [25])?
Its Activity is “Active”.

What about the Activity (Nucleic Acid [26]) of the same molecule?
Its Activity is “inactive”.

And the Activity (Nucleic Acid [27])?
The Activity was “inactive”.

What about the Activity (Nucleic Acid [28]) of the same molecule?
Its Activity is “inactive”.

What about the Activity (Nucleic Acid [29]) of the same molecule?
The Activity was “inactive”.

And the Activity (Nucleic Acid [30])?
The Activity was “Active”.

What about the Activity (Nucleic Acid [31]) of the same molecule?
The Activity was “inactive”.

And the Activity (Nucleic Acid [32])?
The Activity was “Active”.

What about the Activity (Nucleic Acid [33]) of the same molecule?
Its Activity is “inactive”.

What about the Activity (Nucleic Acid [34]) of the same molecule?
The Activity was “Active”.

What about the Activity (Nucleic Acid [35]) of the same molecule?
Its Activity is “inactive”.

And the Activity (Nucleic Acid [36])?
Its Activity is “inactive”.
